Assay results: the supplement of paper PMC10307832

Legend:
Test in all cases: relative viability (nuclei count vs DMSO), 5 days (fraction); higher = more cells survive
[1] = compound: CCC1=CN=CN=C1N2CCN(CC2)CC3=NC4=C(N3)C=C(C=C4)C(F)(F)F + Cc1cc(Nc2cc(N3CCN(C)CC3)nc(Sc3ccc(NC(=O)C4CC4)cc3)n2)n[nH]1 [Tozasertib] (partner 0.1 µM)
How it was run: (§1)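 Relative viability divides the nuclei count in treated wells by that in vehicle wells. Lung cancer cell lines were seeded in 1536-well plates, dosed by pin tool the next day, and fixed and stained after 5 days in one step with final 0.05% Triton X-100, 1% formaldehyde and 1 ug/ml Hoechst. Dosing was a single drug or a fixed anchor-drug dose plus five library-drug doses (not always all listed) in √10 steps, and values are medians of duplicate plates imaged at 4×.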

[2] = compound: CCC1=CN=CN=C1N2CCN(CC2)CC3=NC4=C(N3)C=C(C=C4)C(F)(F)F + O=C(CCCCCCC(=O)Nc1ccccc1)NO [Vorinostat] (partner 1 µM)
How it was run: as §1

[3] = compound: CCn1c(-c2nonc2N)nc2cnc(Oc3cccc(NC(=O)c4ccc(OCCN5CCOCC5)cc4)c3)cc21 + C[C@]1(O)C[C@@H](c2nc(-c3ccc4ccc(-c5ccccc5)nc4c3)c3c(N)nccn32)C1 [Linsitinib] (partner 1 µM)
How it was run: as §1

Mirin + Phenformin = compound: N=C1NC(=O)/C(=C/c2ccc(O)cc2)S1 [Mirin] + N=C(N)NC(=N)NCCc1ccccc1 [Phenformin] (partner 250 µM)
How it was run: as §1

Cell Line | relative viability ([1]; first compound 0.04 µM) | relative viability ([1]; first compound 0.1265 µM) | relative viability ([1]; first compound 0.4 µM) | relative viability ([1]; first compound 1.265 µM) | relative viability ([1]; first compound 4 µM) | relative viability ([2]; first compound 0.04 µM) | relative viability ([2]; first compound 0.1265 µM) | relative viability ([2]; first compound 0.4 µM) | relative viability ([2]; first compound 1.265 µM) | relative viability ([2]; first compound 4 µM) | relative viability ([3]; first compound 0.04 µM) | relative viability ([3]; first compound 0.1265 µM) | relative viability ([3]; first compound 0.4 µM) | relative viability ([3]; first compound 1.265 µM) | relative viability ([3]; first compound 4 µM) | relative viability (Mirin + Phenformin; first compound 0.25 µM) | relative viability (Mirin + Phenformin; first compound 2.5 µM) | relative viability (Mirin + Phenformin; first compound 7.906 µM) | relative viability (Mirin + Phenformin; first compound 25 µM) | relative viability (Mirin + Phenformin; first compound 0.7906 µM)
HCC-366 | 0.138 | 0.148 | 0.131 | 0.143 | 0.0757 | 0.365 | 0.3 | 0.296 | 0.332 | 0.417 | 0.435 | 0.64 | 0.597 | 0.0751 | 0.0223 | 0.627 | 0.718 | 0.601 | 0.583 | 
HCC-827 | 0.441 | 0.409 | 0.397 |  | 0.435 | 0.895 | 0.856 | 0.788 | 0.781 | 0.744 | 0.974 | 0.907 | 0.94 | 0.992 | 0.823 | 0.415 | 0.401 | 0.403 | 0.428 | 0.362
HOP-62 | 0.43 | 0.362 | 0.39 | 0.381 | 0.39 | 0.604 | 0.56 | 0.462 | 0.429 | 0.606 | 1.22 | 1.27 | 0.808 | 0.595 | 1.02 | 0.608 | 0.726 | 0.596 | 0.723 | 0.707
IA-LM |  |  |  |  |  |  | 0.979 | 0.937 | 0.932 | 0.962 | 0.95 | 0.8 | 0.658 | 0.54 | 0.681 |  |  |  |  | 
LC-2-ad | 0.442 | 0.497 | 0.424 | 0.406 | 0.413 | 0.737 | 0.652 | 0.636 | 0.687 | 0.682 | 0.936 | 0.899 | 0.756 | 0.55 | 0.352 | 0.624 | 0.589 | 0.47 | 0.416 | 0.498
LCLC-97TM1 | 0.209 | 0.196 | 0.234 | 0.207 | 0.205 | 0.607 | 0.685 | 0.642 | 0.711 | 0.751 | 0.221 | 0.204 |  | 0.206 | 0.181 | 0.445 | 0.439 | 0.36 | 0.53 | 0.515
LCLC-103H | 0.536 | 0.504 | 0.488 | 0.463 | 0.398 | 0.797 | 0.685 | 0.746 | 0.668 | 0.717 | 1.12 | 1.07 | 0.902 | 1.05 | 1.03 | 0.342 | 0.324 | 0.387 | 0.358 | 0.345
LK-2 | 0.157 | 0.193 | 0.171 | 0.193 | 0.166 | 0.245 | 0.235 | 0.356 | 0.223 | 0.244 | 0.522 | 0.691 | 0.572 | 0.342 | 0.74 | 0.408 | 0.363 | 0.203 | 0.167 | 
LOU-NH91 | 0.625 | 0.68 | 0.669 | 0.585 | 0.657 | 0.842 | 0.907 | 0.927 | 0.76 | 0.993 | 1 | 0.748 | 0.744 | 0.632 | 0.611 | 0.718 | 0.703 | 0.668 | 0.856 | 0.671
LU99A | 0.268 | 0.281 | 0.282 | 0.278 | 0.297 | 0.608 | 0.486 | 0.528 | 0.466 | 0.652 | 0.56 | 0.458 | 0.507 | 0.539 | 0.565 | 0.839 | 0.882 | 0.762 | 0.766 | 0.687
LXF-289 | 0.168 | 0.175 | 0.206 | 0.16 | 0.192 | 0.933 | 0.735 | 0.718 | 0.742 | 0.789 | 1.08 | 1.06 | 0.955 | 0.978 | 0.973 | 0.543 | 0.546 | 0.511 | 0.548 | 0.589
NCI-H522 | 0.59 | 0.591 | 0.467 | 0.518 | 0.499 | 0.951 | 1.02 | 0.75 | 0.771 | 0.973 |  |  |  |  |  | 0.608 | 0.6 | 0.574 | 0.559 | 0.621
NCI-H1299 |  |  |  |  |  |  |  |  |  |  | 0.987 | 0.858 | 0.777 | 0.47 | 0.769 |  |  |  |  | 
NCI-H1563 |  |  |  |  |  |  |  |  |  |  | 1.1 | 1.1 | 1.12 | 0.884 | 0.869 | 0.668 | 0.67 | 0.703 | 0.657 | 0.76
NCI-H1623 | 0.368 | 0.422 | 0.38 | 0.423 | 0.425 |  |  |  |  |  |  |  |  |  |  | 0.562 | 0.577 | 0.459 | 0.48 | 0.383
NCI-H1648 | 0.538 | 0.429 |  | 0.362 | 0.345 | 0.684 |  |  | 0.362 | 0.403 |  |  |  |  |  |  |  |  |  | 
NCI-H1650 | 0.482 | 0.471 | 0.273 |  | 0.331 | 0.635 | 0.73 | 0.503 | 0.359 | 0.636 |  |  |  |  |  | 0.39 | 0.435 | 0.423 | 0.295 | 0.456
NCI-H1703 |  |  |  |  |  |  |  |  |  |  | 0.709 | 0.838 | 0.436 | 0.464 | 0.294 |  |  |  |  | 
NCI-H1792 |  |  |  |  |  |  |  |  |  |  | 0.65 | 0.572 |  | 0.423 | 0.512 | 0.351 | 0.306 | 0.245 | 0.264 | 0.369
NCI-H2170 | 0.719 | 0.74 | 0.648 | 0.662 | 0.643 | 0.787 | 0.731 | 0.778 | 0.724 | 0.815 |  |  |  |  |  | 0.449 | 0.426 | 0.377 | 0.413 | 0.439
NCI-H2342 | 0.467 | 0.428 | 0.571 | 0.333 | 0.398 | 0.629 | 0.736 | 0.744 | 0.531 | 0.565 |  |  |  |  |  | 0.724 | 0.658 | 0.37 | 0.48 | 0.559
SW 900 | 0.538 | 0.585 | 0.497 | 0.548 | 0.523 | 0.454 | 0.45 | 0.403 |  | 0.422 |  |  |  |  |  | 0.732 | 0.488 | 0.597 | 0.629 | 0.654
